Test results: ChEMBL document CHEMBL1127646, “Mechanism-based isocoumarin inhibitors for blood coagulation serine proteases. Effect of the 7-substituent in 7-amino-4-chloro-3-(isothioureidoalkoxy)isocoumarins on inhibitory and anticoagulant potency” (J Med Chem, 1994)
Peptide text beside a SMILES is read from it. * marks the point of attachment. Dansyl = CN(C)c1cccc2c(S(=O)(=O)*)cccc12; CH2Cl = ClC*

Columns and labels:
[1] = target: T1, Coagulation factor VII (Homo sapiens) (UniProt P08709); test: Inhibition of human coagulation factor VII at 7.2-44 uM
T1 sequence (whole entry): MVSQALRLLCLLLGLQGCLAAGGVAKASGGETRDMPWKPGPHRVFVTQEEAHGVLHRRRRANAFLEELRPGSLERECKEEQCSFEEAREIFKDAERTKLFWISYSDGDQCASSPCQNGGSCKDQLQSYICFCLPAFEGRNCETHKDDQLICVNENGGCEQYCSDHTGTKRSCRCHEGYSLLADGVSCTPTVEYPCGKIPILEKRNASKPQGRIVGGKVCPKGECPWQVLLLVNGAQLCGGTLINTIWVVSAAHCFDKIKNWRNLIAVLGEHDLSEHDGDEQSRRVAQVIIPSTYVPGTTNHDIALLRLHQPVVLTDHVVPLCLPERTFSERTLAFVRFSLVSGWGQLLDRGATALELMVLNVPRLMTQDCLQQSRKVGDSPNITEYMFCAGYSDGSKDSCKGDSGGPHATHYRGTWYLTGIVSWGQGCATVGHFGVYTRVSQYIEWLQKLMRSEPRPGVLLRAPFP

[2] = target: Coagulation factor IX (Homo sapiens) (UniProt P00740); test: Inhibition of porcine factor IXa at 8.3-82 uM; conditions: Sus scrofa, target entry is the homologue from another species
Prothrombin (Bos taurus) = Prothrombin (Bos taurus) (UniProt P00735); test: Inhibition of bovine thrombin (inhibitor concentration 1.2-54 uM)
[3] = target: Prothrombin (Homo sapiens) (UniProt P00734); test: Inhibition of human thrombin (inhibitor concentration 1.2-54 uM)
[4] = target: T2, Coagulation factor XII (Homo sapiens) (UniProt P00748); test: Inhibition of human coagulation factor XII (inhibitor concentration were 3.6-4.9 uM)
T2 sequence (whole entry): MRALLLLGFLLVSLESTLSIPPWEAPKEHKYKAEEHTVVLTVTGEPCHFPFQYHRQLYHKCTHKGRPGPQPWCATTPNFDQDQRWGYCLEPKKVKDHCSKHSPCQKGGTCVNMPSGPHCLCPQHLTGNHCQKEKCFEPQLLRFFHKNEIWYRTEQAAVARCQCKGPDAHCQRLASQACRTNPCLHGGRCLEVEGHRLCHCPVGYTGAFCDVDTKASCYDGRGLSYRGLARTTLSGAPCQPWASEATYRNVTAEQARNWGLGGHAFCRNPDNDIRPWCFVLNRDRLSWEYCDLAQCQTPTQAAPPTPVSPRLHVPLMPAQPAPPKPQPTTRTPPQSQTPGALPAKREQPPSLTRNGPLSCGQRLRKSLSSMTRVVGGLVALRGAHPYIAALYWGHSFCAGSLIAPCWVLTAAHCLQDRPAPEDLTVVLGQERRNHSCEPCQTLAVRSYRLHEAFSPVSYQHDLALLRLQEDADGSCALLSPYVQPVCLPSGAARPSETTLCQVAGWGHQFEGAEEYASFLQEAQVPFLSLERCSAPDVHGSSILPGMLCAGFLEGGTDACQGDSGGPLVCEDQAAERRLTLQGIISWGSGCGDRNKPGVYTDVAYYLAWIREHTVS

[5] = target: Coagulation factor XI (Homo sapiens) (UniProt P03951); test: Compound was evaluated for inhibition of enzyme human coagulation factor XI (inhibitor concentration were 0.7-0.8 uM)
Sequence of Coagulation factor XI (Homo sapiens) (P03951 19-387 limits assumed): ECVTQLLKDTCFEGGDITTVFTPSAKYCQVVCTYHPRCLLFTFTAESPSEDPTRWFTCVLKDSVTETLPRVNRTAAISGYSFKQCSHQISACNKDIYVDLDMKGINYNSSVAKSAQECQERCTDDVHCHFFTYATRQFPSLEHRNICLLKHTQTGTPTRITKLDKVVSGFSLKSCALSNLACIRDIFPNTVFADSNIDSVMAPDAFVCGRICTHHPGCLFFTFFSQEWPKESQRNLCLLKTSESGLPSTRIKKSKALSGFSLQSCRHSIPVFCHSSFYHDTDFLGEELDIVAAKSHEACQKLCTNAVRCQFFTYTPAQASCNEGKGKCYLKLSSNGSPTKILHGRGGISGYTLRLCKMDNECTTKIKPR
Sequence of Coagulation factor XI (Homo sapiens) (P03951 388-625 limits assumed): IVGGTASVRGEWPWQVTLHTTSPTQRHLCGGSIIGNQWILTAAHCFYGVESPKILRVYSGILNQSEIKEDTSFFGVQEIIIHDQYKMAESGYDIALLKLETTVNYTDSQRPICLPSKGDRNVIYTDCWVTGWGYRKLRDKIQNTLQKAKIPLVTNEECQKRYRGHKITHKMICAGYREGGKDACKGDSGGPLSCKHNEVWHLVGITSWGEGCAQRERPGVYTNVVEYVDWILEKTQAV

[6] = target: Coagulation factor X (Homo sapiens) (UniProt P00742); test: Inhibition of human factor Xa (inhibitor concentration were 3.6-44 uM)
Sequence of Coagulation factor X (Homo sapiens) (P00742 41-179 limits assumed): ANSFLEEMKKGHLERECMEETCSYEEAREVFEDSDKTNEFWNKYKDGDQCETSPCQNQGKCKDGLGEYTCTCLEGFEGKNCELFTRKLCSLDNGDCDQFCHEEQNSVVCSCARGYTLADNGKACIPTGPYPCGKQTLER
Sequence of Coagulation factor X (Homo sapiens) (P00742 235-488 limits assumed): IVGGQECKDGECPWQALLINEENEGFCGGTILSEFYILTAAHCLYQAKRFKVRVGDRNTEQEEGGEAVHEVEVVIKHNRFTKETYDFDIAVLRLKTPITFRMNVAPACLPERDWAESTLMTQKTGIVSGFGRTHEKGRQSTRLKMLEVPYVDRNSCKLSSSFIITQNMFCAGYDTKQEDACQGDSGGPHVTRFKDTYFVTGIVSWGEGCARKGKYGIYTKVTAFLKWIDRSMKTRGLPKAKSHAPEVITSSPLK

[7] = Hydrolysis half life (t1/2); type: ADME
[8] = target: Tissue factor (Homo sapiens) (UniProt P13726); test: Anticoagulant activity in PT assay at a dose of 31 uM
Sequence of Tissue factor (Homo sapiens) (P13726 whole entry): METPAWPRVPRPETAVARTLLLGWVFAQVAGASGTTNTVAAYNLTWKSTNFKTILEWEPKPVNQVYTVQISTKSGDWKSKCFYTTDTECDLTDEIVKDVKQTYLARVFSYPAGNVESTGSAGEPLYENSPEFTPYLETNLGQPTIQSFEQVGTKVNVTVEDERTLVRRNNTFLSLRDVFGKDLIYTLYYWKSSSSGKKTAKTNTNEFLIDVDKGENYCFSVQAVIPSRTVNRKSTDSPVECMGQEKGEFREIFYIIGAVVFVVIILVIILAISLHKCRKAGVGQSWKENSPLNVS

[9] = Anticoagulant activity was determined in Ortho-activated thrombofax (APTT) assay at a dose 31 uM in human dead plasma; type: functional
[10] = target: T3, Coagulation factor III (Sus scrofa) (UniProt Q6RCS8); test: Anticoagulant activity in PT assay at a dose 32 uM
T3 sequence (whole entry): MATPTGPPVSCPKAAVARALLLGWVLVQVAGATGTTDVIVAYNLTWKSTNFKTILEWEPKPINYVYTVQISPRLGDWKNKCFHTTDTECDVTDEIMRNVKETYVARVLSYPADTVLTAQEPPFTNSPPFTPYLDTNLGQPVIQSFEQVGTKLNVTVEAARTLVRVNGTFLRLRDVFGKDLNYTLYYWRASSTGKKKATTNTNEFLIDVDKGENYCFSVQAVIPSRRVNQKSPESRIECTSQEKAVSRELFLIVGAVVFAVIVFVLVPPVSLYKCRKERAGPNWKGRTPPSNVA

[11] = Anticoagulant activity was determined in Ortho-activated thrombofax (APTT) assay at a dose 9.4 uM in human dead plasma; type: functional
[12] = Anticoagulant activity was determined in Ortho-activated thrombofax (APTT) assay at a dose 32 uM in pig plasma; type: functional, Sus scrofa
[13] = target: T3, Coagulation factor III (Sus scrofa); test: Anticoagulant activity in PT assay at a dose of 32 uM
[14] = Anticoagulant activity was determined in Ortho-activated thrombofax (APTT) assay at a dose 32 uM in human dead plasma; type: functional
[15] = Anticoagulant activity was determined in Ortho-activated thrombofax (APTT) assay at a dose 16 uM in pig plasma; type: functional, Sus scrofa
[16] = target: T3, Coagulation factor III (Sus scrofa); test: Anticoagulant activity in PT assay at a dose 16 uM

Row | SMILES | K obs / 1 [1] | K obs / 1 [2] | K obs / 1 (Prothrombin (Bos taurus)) | K obs / 1 [3] | K obs / 1 [4] | K obs / 1 [6] | half-life [7] | also measured
1 | O=c1oc(Cl)c(Cl)c2ccccc12 | 31 M⁻¹ s⁻¹ | 10 M⁻¹ s⁻¹ | 25 M⁻¹ s⁻¹ | 10 M⁻¹ s⁻¹ | 64 M⁻¹ s⁻¹ | – | – | –
2 | N=C(N)SCCOc1oc(=O)c2cc(NC(=O)Nc3cccc4ccccc34)ccc2c1Cl | – | – | 17500 M⁻¹ s⁻¹ | 5800 M⁻¹ s⁻¹ | – | – | – | –
3 | N=C(N)SCCCOc1oc(=O)c2ccccc2c1Cl | 450 M⁻¹ s⁻¹ | 90 M⁻¹ s⁻¹ | 1400 M⁻¹ s⁻¹ | – | 27000 M⁻¹ s⁻¹ | – | – | K obs / 1 [5]: 47000 M⁻¹ s⁻¹
4 | N=C(N)SCCOc1oc(=O)c2cc(NC(=O)[C@@H](N)Cc3ccccc3)ccc2c1Cl | – | – | 4240 M⁻¹ s⁻¹ | 3070 M⁻¹ s⁻¹ | 82000 M⁻¹ s⁻¹ | 3070 M⁻¹ s⁻¹ | 18 min | –
5 | CC(C)(C)OC(=O)N[C@@H](Cc1ccccc1)C(=O)Nc1ccc2c(Cl)c(OCCSC(=N)N)oc(=O)c2c1 | – | – | 1040 M⁻¹ s⁻¹ | 1090 M⁻¹ s⁻¹ | – | – | 39 min | –
6 | CCOc1oc(=O)c2cc(NC(=N)N)ccc2c1Cl | 2200 M⁻¹ s⁻¹ | 2850 M⁻¹ s⁻¹ | 55000 M⁻¹ s⁻¹ | – | 22000 M⁻¹ s⁻¹ | 11000 M⁻¹ s⁻¹ | – | K obs / 1 [5]: 60000 M⁻¹ s⁻¹
7 | N=C(N)SCCCOc1oc(=O)c2cc(NC(=O)NCc3ccccc3)ccc2c1Cl | – | – | 420 M⁻¹ s⁻¹ | 700 M⁻¹ s⁻¹ | – | – | 148 min | –
8 | CC(=O)CCC(=O)Nc1ccc2c(Cl)c(OCCSC(=N)N)oc(=O)c2c1 | – | – | – | 1770 M⁻¹ s⁻¹ | – | – | 28 min | PT [8]: 42.5 s; APTT [9]: >140 s
9 | C[C@H](N)C(=O)N[C@@H](C)C(=O)Nc1ccc2c(Cl)c(OCCSC(=N)N)oc(=O)c2c1 | – | – | 1070 M⁻¹ s⁻¹ | 880 M⁻¹ s⁻¹ | – | 1490 M⁻¹ s⁻¹ | – | –
10 | N=C(N)SCCOc1oc(=O)c2cc(NC(=O)NCc3ccccc3)ccc2c1Cl | 1810 M⁻¹ s⁻¹ | 2320 M⁻¹ s⁻¹ | 16800 M⁻¹ s⁻¹ | 11700 M⁻¹ s⁻¹ | 45000 M⁻¹ s⁻¹ | 2340 M⁻¹ s⁻¹ | – | K obs / 1 [5]: 105000 M⁻¹ s⁻¹; PT [10]: 31.1 s; APTT [9]: 115.4 s; APTT [11]: 60.1 s; APTT [12]: >120 s
11 | C[C@H](NC(=O)Nc1ccc2c(Cl)c(OCCSC(=N)N)oc(=O)c2c1)c1ccccc1 | 1830 M⁻¹ s⁻¹ | 3980 M⁻¹ s⁻¹ | 41300 M⁻¹ s⁻¹ | 21000 M⁻¹ s⁻¹ | – | – | 56 min | PT [10]: 30 s; APTT [9]: 111.2 s; APTT [11]: 57.6 s; APTT [12]: >120 s
12 | C[C@H](NC(=O)OC(C)(C)C)C(=O)N[C@@H](C)C(=O)Nc1ccc2c(Cl)c(OCCSC(=N)N)oc(=O)c2c1 | – | – | 1530 M⁻¹ s⁻¹ | 970 M⁻¹ s⁻¹ | – | – | 40 min | –
13 | CC(C)(C)OC(=O)N[C@H](Cc1ccccc1)C(=O)Nc1ccc2c(Cl)c(OCCCSC(=N)N)oc(=O)c2c1 | – | – | 330 M⁻¹ s⁻¹ | 520 M⁻¹ s⁻¹ | – | – | 55 min | –
14 | CC(=O)Nc1ccc2c(Cl)c(OCCCSC(=N)N)oc(=O)c2c1 | – | – | 420 M⁻¹ s⁻¹ | 310 M⁻¹ s⁻¹ | – | – | 68 min | –
15 | C[C@@H](NC(=O)Nc1ccc2c(Cl)c(OCCSC(=N)N)oc(=O)c2c1)c1ccccc1 | – | – | 29500 M⁻¹ s⁻¹ | 12000 M⁻¹ s⁻¹ | – | – | 62 min | PT [13]: 26.2 s; APTT [12]: >120 s
16 | N=C(N)SCCCOc1oc(=O)c2cc(N)ccc2c1Cl | 430 M⁻¹ s⁻¹ | 80 M⁻¹ s⁻¹ | 630 M⁻¹ s⁻¹ | 760 M⁻¹ s⁻¹ | 6200 M⁻¹ s⁻¹ | 60 M⁻¹ s⁻¹ | 90 min | K obs / 1 [5]: 22000 M⁻¹ s⁻¹
17 | N=C(N)SCCCOc1oc(=O)c2cc(NC(=O)Nc3ccccc3)ccc2c1Cl | 720 M⁻¹ s⁻¹ | 110 M⁻¹ s⁻¹ | 970 M⁻¹ s⁻¹ | 1840 M⁻¹ s⁻¹ | 7720 M⁻¹ s⁻¹ | 50 M⁻¹ s⁻¹ | 148 min | –
18 | N=C(N)SCCOc1oc(=O)c2cc(NC(=O)NC(c3ccccc3)c3ccccc3)ccc2c1Cl | – | – | – | 7050 M⁻¹ s⁻¹ | – | – | 168 min | PT [8]: 18.4 s; APTT [9]: 121 s
19 | N=C(N)SCCCOc1oc(=O)c2cc(NC(=O)Cc3ccccc3)ccc2c1Cl | 610 M⁻¹ s⁻¹ | 610 M⁻¹ s⁻¹ | 600 M⁻¹ s⁻¹ | 610 M⁻¹ s⁻¹ | 610 M⁻¹ s⁻¹ | 610 M⁻¹ s⁻¹ | 61 min | K obs / 1 [5]: 610 M⁻¹ s⁻¹
20 | CC(C)(C)OC(=O)N[C@H](Cc1ccccc1)C(=O)Nc1ccc2c(Cl)c(OCCSC(=N)N)oc(=O)c2c1 | – | – | 1090 M⁻¹ s⁻¹ | 1140 M⁻¹ s⁻¹ | – | 1620 M⁻¹ s⁻¹ | 42 min | –
21 | N=C(N)SCCOc1oc(=O)c2cc(NC(=O)CCc3ccccc3)ccc2c1Cl | – | – | – | 2150 M⁻¹ s⁻¹ | – | – | 39 min | PT [8]: 24.4 s; APTT [9]: 76.2 s; APTT [14]: 140 s; APTT [11]: 52.4 s
22 | CN(C)c1cccc2c(S(=O)(=O)N[C@@H](CCC(=O)O)C(=O)NCC(=O)N[C@@H](CCCN=C(N)N)C(=O)CCl)cccc12 (Dansyl-Glu-Gly-Arg-CH2Cl) | 20 M⁻¹ s⁻¹ | 180 M⁻¹ s⁻¹ | – | – | – | – | – | –
23 | CC(C)NC(=O)Nc1ccc2c(Cl)c(OCCSC(=N)N)oc(=O)c2c1 | – | – | 4100 M⁻¹ s⁻¹ | 5000 M⁻¹ s⁻¹ | – | – | – | –
24 | N=C(N)SCCCOc1oc(=O)c2cc(NC(=O)[C@@H](N)Cc3ccccc3)ccc2c1Cl | – | – | 180 M⁻¹ s⁻¹ | 220 M⁻¹ s⁻¹ | – | – | 42 min | –
25 | N=C(N)SCCCOc1oc(=O)c2cc(NC(=O)[C@H](N)Cc3ccccc3)ccc2c1Cl | – | – | 400 M⁻¹ s⁻¹ | 470 M⁻¹ s⁻¹ | – | – | 46 min | –
26 | N=C(N)SCCOc1oc(=O)c2cc(NC(=O)[C@H](N)Cc3ccccc3)ccc2c1Cl | 4010 M⁻¹ s⁻¹ | 1590 M⁻¹ s⁻¹ | 1280 M⁻¹ s⁻¹ | 1340 M⁻¹ s⁻¹ | 107000 M⁻¹ s⁻¹ | 3770 M⁻¹ s⁻¹ | 21 min | –
27 | N=C(N)SCCOc1oc(=O)c2cc(NC(=O)Nc3ccccc3)ccc2c1Cl | 3140 M⁻¹ s⁻¹ | 1790 M⁻¹ s⁻¹ | 25000 M⁻¹ s⁻¹ | 22400 M⁻¹ s⁻¹ | 50000 M⁻¹ s⁻¹ | 4740 M⁻¹ s⁻¹ | 108 min | K obs / 1 [5]: 104000 M⁻¹ s⁻¹; PT [10]: 58.3 s; APTT [9]: 87.3 s; APTT [15]: >120 s; PT [16]: 28.5 s; APTT [11]: 47.7 s
28 | CC(C)(C)OC(=O)N[C@@H](Cc1ccccc1)C(=O)Nc1ccc2c(Cl)c(OCCCSC(=N)N)oc(=O)c2c1 | – | – | 190 M⁻¹ s⁻¹ | 230 M⁻¹ s⁻¹ | – | – | 51 min | –
29 | N=C(N)SCCOc1oc(=O)c2cc(NC(=O)Cc3ccccc3)ccc2c1Cl | 1100 M⁻¹ s⁻¹ | 2620 M⁻¹ s⁻¹ | 15800 M⁻¹ s⁻¹ | 6730 M⁻¹ s⁻¹ | 59000 M⁻¹ s⁻¹ | 3630 M⁻¹ s⁻¹ | – | –
30 | N=C(N)SCCCOc1oc(=O)c2cc(NC(=O)CCc3ccccc3)ccc2c1Cl | – | – | 820 M⁻¹ s⁻¹ | 630 M⁻¹ s⁻¹ | – | – | 66 min | –
